Experimental findings from US7381749B2, “Sulfonamides as inhibitors of histone deacetylase for the treatment of disease” (Kalypsys, Inc., priority 2004, dated 2008) are described below.

For one test, the system named is HDAC in cells. In words: Cellular IC50 (cellular assays: histone hyperacetylation cytoblot / differential cytotoxicity). The note with it: transformed cell lines (e.g. HeLa, A549, MCF-7); cell line not specified. It counts as cell-based. The protocol:
These two secondary assays evaluates a compound's ability to inhibit HDAC in cells by measuring cellular histone acetylation levels. The cytoblot facilitates quantitative EC50 information for cellular HDAC inhibition. Transformed cell lines (e.g. HeLa, A549, MCF-7) are cultured under standard media and culture conditions prior to plating.
Cells (approx. 2,500/well) are allowed to adhere 10-24 hours to wells of a 384-well Greiner PS assay plate in media containing 1-5% serum. Cells are treated with appropriate compound and specific concentrations for 0 to 24 hours. Cells are washed once with PBS (60 ul) and then fixed (95% ethanol, 5% acetic acid or 2% PFA) for 1 minute at RT (30 ul). Cells are blocked with 1% BSA for 1 hour and washed and stained with antibody (e.g. anti-Acetylated Histone H3, Upstate Biotechnology), followed by washing and incubation with an appropriate secondary antibody conjugated to HRP or fluorophore. For luminescence assays, signal is generated using Luminol substrate (Santa Cruz Biotechnology) and detected using an Aquest plate reader (Molecular Devices).
Differential Cytotoxicity Assay:
HDAC inhibitors display differential cytotoxicity toward certain transformed cell lines. Cells are cultured according to standard ATCC recommended conditions that are appropriate to each cell type. Compounds were tested for their ability to kill different cell types (normal and transformed) using the ATPlite luminescence ATP detection assay system (Perkin Elmer). Assays are run in either 384-well or 1536-well Greiner PS plates. Cells (30 ul or 5 ul, respectively) are dispensed using either multichannel pipette for 384-well plates, or proprietary Kalypsys bulk liquid dispenser for 1536-well plates. Compounds added using proprietary pin-transfer device (500 nL or 5 nL) and incubated 5 to 30 hours prior to analysis. Luminescence is measured using Aquest plate reader (Molecular Devices).

For another test, the system named is HDAC. As to the kind of experiment: In vitro HDAC-inhibition assay (Fluor de Lys fluorescent substrate). Conditions: HDAC enzyme source (e.g. partially purified nuclear extract or immunopurified HDAC complexes). It counts as biochemical. The protocol:
In vitro HDAC-Inhibition Assay:
This assay measures a compound's ability to inhibit acetyl-lysine deacetylation in vitro and was used as both a primary screening method as well as for IC50 determinations of confirmed inhibitors. The assay is performed in vitro using an HDAC enzyme source (e.g. partially purified nuclear extract or immunopurified HDAC complexes) and a proprietary fluorescent substrate/developer system (HDAC Quantizyme Fluor de Lys Fluorescent Activity Assay, BIOMOL). The assay is run in 1,536-well Greiner white-bottom plates using the following volumes and order of addition: • Step 1: Enzyme (2.5 ul) source added to plate (from refrigerated container) • Step 2: Compounds (50 nl) added with pin transfer device • Step 3: Fluor de Lys (2.5 ul) substrate added, incubate at RT, 30 minutes • Step 4: Developer (5 ul) solution is added (containing TSA), to stop reaction • Step 5: Plate Reader—data collection • The deacetylated fluorophore is excited with 360 nm light and the emitted light (460 nm) is detected on an automated fluorometric plate reader (Aquest, Molecular Devices).

The term IC50 denotes the concentration needed to halve the response being measured. Read a high IC50 as a need for much substance.

Turning to `CC(=O)SCC(=O)c1ccc(NS(=O)(=O)c2ccccc2Cl)cc1` [Example 38], the IC50 in the test on HDAC in cells and in the test on HDAC was less than 1000 nM in each case.

As to `CC(=O)SCC(=O)c1cccc(NS(=O)(=O)c2ccc(OC(F)(F)F)cc2)c1` [Example 39], the half-inhibitory concentration (IC50) in the test on HDAC in cells and in the test on HDAC was less than 1000 nM each time.

Consider `CC(=O)SCC(=O)c1ccccc1NS(=O)(=O)c1ccc(OC(F)(F)F)cc1` [Example 40], for which the IC50 is greater than 50000 nM in the test on HDAC in cells and less than 10000 nM in the test with HDAC.

Consider `CC(=O)SCC(=O)c1ccc(NS(=O)(=O)c2cccc(OC(F)(F)F)c2)cc1` [Example 41], for which the IC50 with HDAC in cells and with HDAC was less than 1000 nM each time.

As for `CC(=O)SCC(=O)c1ccc(NS(=O)(=O)c2cccc(F)c2)cc1` [Example 46], the IC50 in the test with HDAC in cells and in the test on HDAC was less than 1000 nM in each case.

Consider `CC(=O)SCC(=O)c1ccc(NS(=O)(=O)c2ccc(OC(F)(F)F)cc2)cc1F` [Example 47, Thioacetic acid S-{2-[2-fluoro-4-(4-trifluoromethoxy-benzenesulfonylamino)-phenyl]-2-oxo-ethyl}ester], for which the IC50 with HDAC in cells and in the test with HDAC was less than 1000 nM each time.

With `CC(=O)SCC(=O)c1ccc2c(c1)CCN2S(=O)(=O)c1ccccc1` [Example 48, Thioacetic acid S-[2-(1-benzenesulfonyl-2,3-dihydro-1H-indol-5-yl)-2-oxo-ethyl]ester], the IC50 in the test with HDAC in cells is less than 10000 nM; in the test with HDAC, less than 1000 nM.

In the case of `CC(=O)SCC(=O)c1ccc2c(ccn2S(=O)(=O)c2ccccc2)c1` [Example 49, Thioacetic acid S-[2-(1-benzenesulfonyl-1H-indol-5-yl)-2-oxo-ethyl]ester], the IC50 in the test on HDAC in cells and in the test with HDAC was less than 1000 nM in each case.

For the molecule `COc1cccc(S(=O)(=O)Nc2ccc(C(=O)CSC(C)=O)cn2)c1` [Example 50, Thioacetic acid S-{2-[6-(3-methoxy-benzenesulfonylamino)-pyridin-3-yl]-2-oxo-ethyl}ester], the IC50 in the test on HDAC in cells and in the test with HDAC was less than 1000 nM each time.

For the molecule `CC(=O)SCC(=O)c1ccc(NS(=O)(=O)c2ccccn2)cc1` [Example 51, Thioacetic acid S-{2-oxo-2-[4-(pyridine-2-sulfonylamino)-phenyl]-ethyl}ester], the IC50 in the test on HDAC in cells and in the test on HDAC was less than 1000 nM in each case.

In the case of `CC(=O)SCC(=O)c1ccc(NS(=O)(=O)c2cccnc2)cc1` [Example 52, Thioacetic acid S-{2-oxo-2-[4-(pyridine-3-sulfonylamino)-phenyl]-ethyl}ester], the IC50 was less than 10000 nM in the test on HDAC in cells and less than 1000 nM in the test with HDAC.

Turning to `CC(=O)SCC(=O)c1ccc2c(c1)CCN2S(=O)(=O)c1ccccn1` [Example 53, Thioacetic acid S-{2-oxo-2-[1-(pyridine-2-sulfonyl)-2,3-dihydro-1H-indol-5-yl]-ethyl}ester], the IC50 with HDAC in cells and in the test with HDAC was less than 1000 nM throughout.
